Laboratory results: ChEMBL document CHEMBL1146980, “Synthesis and antitumor activity of icogenin and its analogue” (Bioorg Med Chem Lett, 2006)

How the values were obtained:
Format in all cases: functional, cell-based
BGC-823 = test: Cytotoxicity against human BGC823 cells by MTT assay
KETR3 = test: Cytotoxicity against human KETR3 cells by MTT assay
HCT-8 = test: Cytotoxicity against human HCT8 cells by MTT assay
PC-3 = test: Cytotoxicity against human PC3M cells by MTT assay
PANC-1 = test: Cytotoxicity against human PANC1 cells by MTT assay
Bel-7402 = test: Cytotoxicity against human BEL-7402 cells by MTT assay
NCI-H460 = test: Cytotoxicity against human H460 cells by MTT assay
A-431 = test: Cytotoxicity against human A431 cells by MTT assay

Structure (SMILES): CO[C@]1(CC[C@H](C)CO)O[C@H]2C[C@H]3[C@@H]4CC=C5C[C@@H](O[C@H]6O[C@H](CO)[C@@H](O)[C@H](O[C@@H]7O[C@H](CO)[C@@H](O)[C@H](O)[C@H]7O)[C@H]6O[C@@H]6O[C@@H](C)[C@H](O)[C@@H](O)[C@H]6O)CC[C@]5(C)[C@H]4CC[C@]3(C)[C@H]2[C@@H]1C
- IC50 (BGC-823): 2520 nM
- IC50 (KETR3): 3780 nM
- IC50 (HCT-8): 1420 nM
- IC50 (PC-3): 2760 nM
- IC50 (PANC-1): 380 nM
- IC50 (Bel-7402): 950 nM
- IC50 (NCI-H460): 8160 nM
- IC50 (A-431): 670 nM

Structure (SMILES): CO[C@]1(CC[C@H](C)CO)O[C@H]2C[C@H]3[C@@H]4CC=C5C[C@@H](O[C@@H]6O[C@H](CO)[C@@H](O)[C@H](O[C@@H]7O[C@H](CO)[C@@H](O)[C@H](O)[C@H]7O)[C@H]6O[C@@H]6O[C@@H](C)[C@H](O)[C@@H](O)[C@H]6O)CC[C@]5(C)[C@H]4CC[C@]3(C)[C@H]2[C@@H]1C [ICOGENIN]
- IC50 (BGC-823): > 10000 nM
- IC50 (KETR3): 5150 nM
- IC50 (HCT-8): 1450 nM
- IC50 (PC-3): 4350 nM
- IC50 (PANC-1): 270 nM
- IC50 (Bel-7402): 750 nM
- IC50 (NCI-H460): > 10000 nM
- IC50 (A-431): 3440 nM
